Measurements from PubChem BioAssay (NCI).
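96-well plates; 48 h exposure; 5 concentrations. Endpoints by linear interpolation between flanking doses. Not reached: highest tested concentration assigned. TGI is the concentration that stops growth completely.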

Assays:
Experiment in all cases: NCI anticancer screen, dose series, 48 h
HL-60(TB) leukemia = test system: HL-60(TB) leukemia
KM20L2 colon = test system: KM20L2 colon
ACHN renal = test system: ACHN renal
DMS 114 small cell lung = test system: DMS 114 small cell lung
OVCAR-8 ovarian = test system: OVCAR-8 ovarian
U251 CNS = test system: U251 CNS
LXFL 529 NSCLC = test system: LXFL 529 NSCLC
NCI-H23 lung = test system: NCI-H23 lung
OVCAR-5 ovarian = test system: OVCAR-5 ovarian
SR leukemia = test system: SR leukemia
NCI-H226 lung = test system: NCI-H226 lung
EKVX NSCLC = test system: EKVX NSCLC
DLD-1 colon = test system: DLD-1 colon
HOP-18 NSCLC = test system: HOP-18 NSCLC
SNB-78 CNS = test system: SNB-78 CNS
SNB-75 CNS = test system: SNB-75 CNS
CAKI-1 renal = test system: CAKI-1 renal
SN12C renal = test system: SN12C renal
HCC-2998 colon = test system: HCC-2998 colon
SF-295 CNS = test system: SF-295 CNS
SF-539 CNS = test system: SF-539 CNS
RXF 393 renal = test system: RXF 393 renal
SK-MEL-2 melanoma = test system: SK-MEL-2 melanoma
A549 NSCLC = test system: A549 NSCLC
UO-31 renal = test system: UO-31 renal
NCI-H460 lung = test system: NCI-H460 lung
SK-MEL-28 melanoma = test system: SK-MEL-28 melanoma
LOX IMVI melanoma = test system: LOX IMVI melanoma
NCI-H522 lung = test system: NCI-H522 lung
HOP-92 NSCLC = test system: HOP-92 NSCLC
UACC-257 melanoma = test system: UACC-257 melanoma
HT29 colon = test system: HT29 colon
SW-620 colon = test system: SW-620 colon
SNB-19 CNS = test system: SNB-19 CNS
COLO 205 colon = test system: COLO 205 colon
MALME-3M melanoma = test system: MALME-3M melanoma
HOP-62 NSCLC = test system: HOP-62 NSCLC
KM12 colon = test system: KM12 colon
786-0 renal = test system: 786-0 renal
SK-MEL-5 melanoma = test system: SK-MEL-5 melanoma
M19-MEL melanoma = test system: M19-MEL melanoma
TK-10 renal = test system: TK-10 renal
SF-268 CNS = test system: SF-268 CNS
M14 melanoma = test system: M14 melanoma
UACC-62 melanoma = test system: UACC-62 melanoma
OVCAR-3 ovarian = test system: OVCAR-3 ovarian
SK-OV-3 ovarian = test system: SK-OV-3 ovarian
HCT-116 colon = test system: HCT-116 colon
OVCAR-4 ovarian = test system: OVCAR-4 ovarian
XF 498 CNS = test system: XF 498 CNS
IGROV1 ovarian = test system: IGROV1 ovarian
DMS 273 small cell lung = test system: DMS 273 small cell lung
K-562 leukemia = test system: K-562 leukemia
MDA-MB-231 breast = test system: MDA-MB-231 breast
MOLT-4 leukemia = test system: MOLT-4 leukemia
PC-3 prostate = test system: PC-3 prostate
A498 renal = test system: A498 renal
BT-549 breast = test system: BT-549 breast
MCF7 breast = test system: MCF7 breast
HCT-15 colon = test system: HCT-15 colon
CCRF-CEM leukemia = test system: CCRF-CEM leukemia
RPMI-8226 leukemia = test system: RPMI-8226 leukemia
MDA-MB-435 = test system: MDA-MB-435
NCI/ADR-RES ovarian = test system: NCI/ADR-RES ovarian
HS 578T breast = test system: HS 578T breast
MDA-N = test system: MDA-N
DU-145 prostate = test system: DU-145 prostate
T-47D breast = test system: T-47D breast

COCC(O)CN1C(N)=NC(O)C1O (centres undefined)
TGI (HL-60(TB) leukemia): > 100 µM
TGI (KM20L2 colon): > 100 µM
TGI (ACHN renal): > 100 µM
TGI (DMS 114 small cell lung): > 100 µM
TGI (OVCAR-8 ovarian): > 100 µM
TGI (U251 CNS): > 100 µM
TGI (LXFL 529 NSCLC): > 100 µM
TGI (NCI-H23 lung): > 100 µM
TGI (OVCAR-5 ovarian): > 100 µM
TGI (SR leukemia): > 100 µM
TGI (NCI-H226 lung): > 100 µM
TGI (EKVX NSCLC): > 100 µM
TGI (DLD-1 colon): > 100 µM
TGI (HOP-18 NSCLC): > 100 µM
TGI (SNB-78 CNS): > 100 µM
TGI (SNB-75 CNS): > 100 µM
TGI (CAKI-1 renal): > 100 µM
TGI (SN12C renal): > 100 µM
TGI (HCC-2998 colon): > 100 µM
TGI (SF-295 CNS): > 100 µM
TGI (SF-539 CNS): > 100 µM
TGI (RXF 393 renal): > 100 µM
TGI (SK-MEL-2 melanoma): > 100 µM
TGI (A549 NSCLC): > 100 µM
TGI (UO-31 renal): > 100 µM
TGI (NCI-H460 lung): > 100 µM
TGI (SK-MEL-28 melanoma): > 100 µM
TGI (LOX IMVI melanoma): > 100 µM
TGI (NCI-H522 lung): > 100 µM
TGI (HOP-92 NSCLC): > 100 µM
TGI (UACC-257 melanoma): > 100 µM
TGI (HT29 colon): > 100 µM
TGI (SW-620 colon): > 100 µM
TGI (SNB-19 CNS): > 100 µM
TGI (COLO 205 colon): > 100 µM
TGI (MALME-3M melanoma): > 100 µM
TGI (HOP-62 NSCLC): > 100 µM
TGI (KM12 colon): > 100 µM
TGI (786-0 renal): > 100 µM
TGI (SK-MEL-5 melanoma): > 100 µM
TGI (M19-MEL melanoma): > 100 µM
TGI (TK-10 renal): > 100 µM
TGI (SF-268 CNS): > 100 µM
TGI (M14 melanoma): > 100 µM

S=C(N/N=C/c1ccccc1)NC1CC(c2ccccc2)Oc2ccccc21 (centres undefined)
TGI (UACC-62 melanoma): > 100 µM
TGI (DMS 114 small cell lung): > 100 µM
TGI (OVCAR-8 ovarian): > 100 µM
TGI (OVCAR-3 ovarian): 28.7 µM
TGI (U251 CNS): > 100 µM
TGI (SK-OV-3 ovarian): > 100 µM
TGI (LXFL 529 NSCLC): > 100 µM
TGI (NCI-H23 lung): > 100 µM
TGI (OVCAR-5 ovarian): > 100 µM
TGI (SR leukemia): > 100 µM
TGI (NCI-H226 lung): > 100 µM
TGI (EKVX NSCLC): > 100 µM
TGI (DLD-1 colon): > 100 µM
TGI (HCT-116 colon): > 100 µM
TGI (OVCAR-4 ovarian): 71.3 µM
TGI (XF 498 CNS): > 100 µM
TGI (SNB-78 CNS): 96.1 µM
TGI (IGROV1 ovarian): > 100 µM
TGI (SNB-75 CNS): 31.3 µM
TGI (CAKI-1 renal): > 100 µM
TGI (DMS 273 small cell lung): > 100 µM
TGI (SN12C renal): > 100 µM
TGI (HCC-2998 colon): > 100 µM
TGI (SF-295 CNS): 87.7 µM
TGI (SF-539 CNS): > 100 µM
TGI (SK-MEL-2 melanoma): > 100 µM
TGI (A549 NSCLC): > 100 µM
TGI (UO-31 renal): > 100 µM
TGI (NCI-H460 lung): > 100 µM
TGI (SK-MEL-28 melanoma): > 100 µM
TGI (LOX IMVI melanoma): > 100 µM
TGI (K-562 leukemia): > 100 µM
TGI (NCI-H522 lung): > 100 µM
TGI (HOP-92 NSCLC): 10.2 µM
TGI (HT29 colon): > 100 µM
TGI (SW-620 colon): > 100 µM
TGI (SNB-19 CNS): > 100 µM
TGI (COLO 205 colon): > 100 µM
TGI (MALME-3M melanoma): > 100 µM
TGI (KM12 colon): > 100 µM
TGI (786-0 renal): > 100 µM
TGI (SK-MEL-5 melanoma): 65.8 µM
TGI (M19-MEL melanoma): > 100 µM
TGI (SF-268 CNS): > 100 µM
TGI (M14 melanoma): > 100 µM

Fc1ccccc1N=c1oc2ccc(Br)cc2cc1-c1nc2ccccc2[nH]1
TGI (HL-60(TB) leukemia): > 100 µM
TGI (UACC-62 melanoma): 51.5 µM
TGI (ACHN renal): 29.8 µM
TGI (OVCAR-8 ovarian): > 36.5 µM
TGI (MDA-MB-231 breast): 25.8 µM
TGI (MOLT-4 leukemia): > 100 µM
TGI (U251 CNS): 20.1 µM
TGI (PC-3 prostate): > 23.4 µM
TGI (SK-OV-3 ovarian): 32.9 µM
TGI (A498 renal): 9.69 µM
TGI (NCI-H23 lung): 29.8 µM
TGI (OVCAR-5 ovarian): > 62.8 µM
TGI (SR leukemia): > 100 µM
TGI (NCI-H226 lung): 17.6 µM
TGI (EKVX NSCLC): > 41.5 µM
TGI (BT-549 breast): 26.7 µM
TGI (HCT-116 colon): > 31.8 µM
TGI (OVCAR-4 ovarian): > 37.3 µM
TGI (MCF7 breast): > 100 µM
TGI (HCT-15 colon): > 100 µM
TGI (IGROV1 ovarian): > 42.1 µM
TGI (CCRF-CEM leukemia): > 100 µM
TGI (SNB-75 CNS): 4.74 µM
TGI (CAKI-1 renal): 35.8 µM
TGI (SN12C renal): > 41.1 µM
TGI (HCC-2998 colon): > 35.2 µM
TGI (SF-295 CNS): 23.2 µM
TGI (SF-539 CNS): 4.58 µM
TGI (RPMI-8226 leukemia): > 85.6 µM
TGI (RXF 393 renal): 21.8 µM
TGI (SK-MEL-2 melanoma): 26.6 µM
TGI (A549 NSCLC): 23.1 µM
TGI (UO-31 renal): 20.5 µM
TGI (MDA-MB-435): > 64.6 µM
TGI (NCI/ADR-RES ovarian): 65.7 µM
TGI (NCI-H460 lung): > 76.6 µM
TGI (SK-MEL-28 melanoma): > 76.2 µM
TGI (LOX IMVI melanoma): > 31.2 µM
TGI (K-562 leukemia): > 100 µM
TGI (HS 578T breast): 13.4 µM
TGI (NCI-H522 lung): 6.82 µM
TGI (MDA-N): > 42.6 µM
TGI (HOP-92 NSCLC): 83.8 µM
TGI (UACC-257 melanoma): > 47.5 µM
TGI (HT29 colon): > 54.8 µM
TGI (SW-620 colon): > 100 µM
TGI (SNB-19 CNS): 21.9 µM
TGI (COLO 205 colon): > 100 µM
TGI (MALME-3M melanoma): 14.9 µM
TGI (HOP-62 NSCLC): 28.1 µM
TGI (KM12 colon): > 54.9 µM
TGI (786-0 renal): 8.5 µM
TGI (DU-145 prostate): > 42.5 µM
TGI (SK-MEL-5 melanoma): 35.7 µM
TGI (TK-10 renal): 17.2 µM
TGI (SF-268 CNS): 21 µM
TGI (T-47D breast): > 100 µM
TGI (M14 melanoma): 35.8 µM

CC(C)(C)C(=O)Cc1cc2c(cc1C(=O)O)S(=O)(=O)NC(C(C)(C)C)=C2
TGI (HL-60(TB) leukemia): > 100 µM
TGI (UACC-62 melanoma): > 100 µM
TGI (ACHN renal): > 100 µM
TGI (DMS 114 small cell lung): > 100 µM
TGI (OVCAR-8 ovarian): > 100 µM
TGI (OVCAR-3 ovarian): > 100 µM
TGI (MOLT-4 leukemia): > 100 µM
TGI (U251 CNS): > 100 µM
TGI (SK-OV-3 ovarian): > 100 µM
TGI (A498 renal): > 100 µM
TGI (LXFL 529 NSCLC): > 100 µM
TGI (NCI-H23 lung): > 100 µM
TGI (OVCAR-5 ovarian): > 100 µM
TGI (SR leukemia): > 100 µM
TGI (NCI-H226 lung): > 100 µM
TGI (EKVX NSCLC): > 100 µM
TGI (DLD-1 colon): > 100 µM
TGI (HCT-116 colon): > 100 µM
TGI (OVCAR-4 ovarian): > 100 µM
TGI (SNB-78 CNS): > 100 µM
TGI (CCRF-CEM leukemia): > 100 µM
TGI (SNB-75 CNS): > 100 µM
TGI (CAKI-1 renal): > 100 µM
TGI (SN12C renal): > 100 µM
TGI (SF-295 CNS): > 100 µM
TGI (RPMI-8226 leukemia): > 100 µM
TGI (SK-MEL-2 melanoma): > 100 µM
TGI (A549 NSCLC): > 100 µM
TGI (UO-31 renal): > 100 µM
TGI (NCI-H460 lung): > 100 µM
TGI (SK-MEL-28 melanoma): > 100 µM
TGI (K-562 leukemia): > 100 µM
TGI (NCI-H522 lung): > 100 µM
TGI (HOP-92 NSCLC): > 100 µM
TGI (UACC-257 melanoma): > 100 µM
TGI (HT29 colon): > 100 µM
TGI (SW-620 colon): > 100 µM
TGI (SNB-19 CNS): > 100 µM
TGI (COLO 205 colon): > 100 µM
TGI (MALME-3M melanoma): > 100 µM
TGI (HOP-62 NSCLC): > 100 µM
TGI (KM12 colon): > 100 µM
TGI (786-0 renal): > 100 µM
TGI (M19-MEL melanoma): > 100 µM
TGI (TK-10 renal): > 100 µM
TGI (SF-268 CNS): > 100 µM
TGI (M14 melanoma): > 100 µM
